Measurements: patent US20220249661A1, “Pharmaceutical composition for preventing or treating inflammatory bowel disease comprising Tumor necrosis factor alpha inhibitor and Prostaglandin E2” (SAMSUNG LIFE PUBLIC WELFARE FOUNDATION, priority 2021, published 2022)

Tests used:
Type in all cases: cell-based, human
[1] = test system: Crohn's disease patient-derived intestinal organoids; assay: MTT assay (cell viability), Crohn's disease patient-derived organoids
Method: (§1) To evaluate the cell viability of organoids, 100 μL of basal medium containing MTT (3-[4,5-dimethylthiazol-2-yl]-2,5-diphenyltetrazolium bromide) (Sigma-Aldrich) at a concentration of 500 μg/ml was added to each well of a culture plate and incubated for 2 hours at 37° C. To remove the medium and dissolve the Matrigel, 10 μL of 21 SDS (sodium dodecyl sulfate) solution was added thereto, followed by incubation for 2 hours. After adding 100 μL of detergent reagent, the organoids were further incubated for 1 hour, and the absorbance was measured at 562 nm for quantification. Statistical analysis was performed by ANOVA using Bonferroni's multiple comparison test (* p<0.05, ** p<0.01 and *** p<0.001).
(§2) To evaluate cell viability, MTT assay was performed in the same manner as in Experimental Example 2. Statistical analysis was performed by ANOVA using Bonferroni's multiple comparison test (* p<0.05, ** p<0.01 and *** p<0.001).
(§3) FIGS. 20 and 21 show the results of analyzing the changes in organoid reconstitution rate and cell viability of TNFα-treated Crohn's disease patient-derived organoids by infliximab and PGE2. Cases in need of actual infliximab treatment or potential PGE2 treatment are Crohn's disease patients, and based on the information obtained from the normal person-derived organoids, the effects of infliximab and PGE2 on Crohn's disease patient-derived organoids with reduced intestinal epithelial regeneration ability were evaluated.

LGR5 [2] = assay: qPCR for LGR5 in Crohn's disease patient-derived organoids; conditions: TNFα 0, 30 or 100 ng/mL + high concentration (infliximab 10 μg/mL or PGE2 10 nM)
Method: For the Crohn's disease patient-derived organoids of each experimental group, 0, 30 or 100 ng/mL of human recombinant TNFα, 0, 5 or 10 nM of PGE2, and 0, 1 or 10 μg/mL of infliximab were added to the culture medium daily.
Total RNA was extracted from intestinal organoids using the RNeasy Mini Kit (QIAGEN). One-step qPCR was performed using the following primers together with One Step PrimeScript™ III RT-qPCR Mix (Takara): LGR5 primers (forward: 5′-[…]-3′, reverse: 5′-[…]-3′). Statistical analysis was performed by ANOVA using Bonferroni's multiple comparison test (* p<0.05 and *** p<0.001).

[3] = test system: Crohn's disease patient-derived intestinal organoids; assay: Organoid reconstitution assay, Crohn's disease patient-derived organoids
Method: (§4) In order to evaluate the organoid-forming ability of intestinal crypts obtained from normal persons and patients with Crohn's disease, 100 intestinal crypts per 25 μL of Matrigel were dispensed into maintenance medium. The culture medium was changed once every two days. The number of viable organoids and enteroids per well was counted under a microscope (CK40, Olympus). The organoid-forming efficiency was calculated as the ratio of available organoids per 100 intestinal crypts. The organoid reconstitution rate was calculated by counting the number of organoids on day 4 and the number of organoids on day 10. Statistical analysis was performed by ANOVA using Bonferroni's multiple comparison test (* p<0.05, ** p<0.01 and *** p<0.001).
(§5) Normal person-derived organoids were cultured in a maintenance medium for 2 days to obtain a stable number of organoids, and then the medium was replaced with a differentiation medium every 2 days. For each experimental group, human recombinant TNFα and PGE2 (Cayman Chemical Company) or infliximab were added to the culture medium every day. The organoid reconstitution rate was calculated by comparing the number of organoids on day 4 and the number of organoids on day 10.
as §3

[4] = test system: normal person-derived intestinal organoids; assay: Organoid reconstitution assay, normal person-derived organoids
Method: as §4, §5

[5] = test system: Crohn's disease patient-derived organoids; assay: Wound healing assay, two-dimensional Crohn's disease patient-derived organoid monolayers
Method: (§6) For matrix coating, each well of the 24-well plate was coated at 37° C. for 1 hour with 500 μL of Matrigel diluted at a concentration of 51 in the basal medium. For two-dimensional culture, organoids in the three-dimensional culture were digested into single cells using TrypLE Express (Thermo Fisher). The digested cells were resuspended in the basal medium and seeded into Matrigel-coated wells.
(§7) For wound healing assay, 5×10^4 cells were seeded in wells of a 24-well plate containing inserts of CytoSelect™ 24-Well Wound Healing Assay. The two-dimensional organoid monolayers were cultured in maintenance medium until confluence was reached. The inserts were then carefully removed to produce 0.9-mm-diameter wounds, and 500 μL of fresh differentiation medium was added to each well. Then, the cells in the wound were monitored using a phase-contrast microscope at 0, 4, 8, 16, and 24 hours. At each time point, the area of the non-healed wound was measured in 3 different regions. Statistical analysis was performed by ANOVA using Bonferroni's multiple comparison test (* p<0.05, ** p<0.01 and *** p<0.001).
In addition, wound healing assay was performed in the same manner as in Experimental Example 7.
For the Crohn's disease patient-derived organoids of each experimental group, 30 ng/mL of human recombinant TNFα, or 10 nM of PGE2, and 1 or 10 μg/mL of infliximab were added to the culture medium daily. Statistical analysis was performed by ANOVA using Bonferroni's multiple comparison test (** p<0.01 and *** p<0.001).

LGR5 [6] = assay: FACS analysis for LGR5 in Crohn's disease patient-derived organoids; conditions: 30 ng/mL TNFα + high concentration (infliximab 10 μg/mL or PGE2 10 nM)
Method: For the Crohn's disease patient-derived organoids of each experimental group, 30 ng/mL of human recombinant TNFα, or 10 nM of PGE2, and 1 or 10 μg/mL of infliximab were added to the culture medium daily.
To prepare single-cell suspensions from organoids, organoids were incubated with TrypLE Express in a water bath at 37° C. for 30 minutes. Then, the cells were washed with basal medium and collected by filtration through a 40-μm cell strainer. Flow cytometry for detecting the marker was performed using 1×10^5 cells. Cells were incubated with human Lgr5/GPR49 antibody (R&D Systems) in FACS buffer for 30 min. Unbound antibodies were washed out, and the cells were incubated with Alexa Fluor 488-conjugated anti-mouse immunoglobulin G secondary antibody (Thermo Fisher) for 30 minutes. The cells were then washed, resuspended in FACS buffer, and analyzed on the FACS Aria III instrument (BD Biosciences) to evaluate LGR5+ ISCs population.

LGR5 [7] = assay: Immunohistochemistry, LGR5+ cells per organoid, Crohn's disease patient-derived organoids; conditions: TNFα-treated; vs normal person-derived organoids
Method: (§8) After removing the culture medium, the organoids were washed with PBS and fixed in cold 4% paraformaldehyde at room temperature for 30 minutes. The fixed organoids were washed with PBS and embedded in HistoGel (Thermo Fisher). HistoGel blocks were used for paraffin embedding and sectioned for histologic examination and IHC. Histologic evaluation was performed using hematoxylin-eosin-stained sections. After heating-induced epitope retrieval with citrate buffer, IHC was performed using the following antibodies: cleaved caspase-3 (Asp175, 1:200 dilution, Cell Signaling), E-cadherin (1:100 dilution, Abcam), and LGR5 (1:400 dilution, Abcam). The number of LGR5+ cells per organoid in each of the TNFα-treated group (n=10) and the TNFα-untreated group (n=10) was counted, and statistical analysis was performed by ANOVA using Bonferroni's multiple comparison test (*** p<0.001).

LGR5 [8] = assay: Immunohistochemistry, LGR5+ cells per organoid, normal person-derived organoids; conditions: TNFα-treated vs TNFα-untreated
Method: as §8

[9] = test system: normal person-derived organoids; assay: Wound healing assay, two-dimensional normal person-derived organoid monolayers; conditions: TNFα-treated; 0-24 hours
Method: as §6, §7

[10] = test system: Crohn's disease patient-derived organoids; assay: EdU assay (cell proliferation), Crohn's disease patient-derived organoids; conditions: 30 ng/mL TNFα; vs normal person-derived organoids
Method: (§9) To evaluate the cell proliferation of organoids, each organoid was incubated for 2 hours in a medium containing 10 μM of EdU (5-ethynyl-2′-deoxyuridine) (Abcam), and then fixed with cold 41 paraformaldehyde (Biosesang). EDU incorporation in DNA was detected using Click-iT™ EdU Alexa Fluor® 488 imaging kit (Thermo Fisher). The number of EDU positive (+) cells in the organoids was counted using a confocal microscope (LSM 800, Carl Zeiss). Statistical analysis was performed by ANOVA using Bonferroni's multiple comparison test (* p<0.05 and *** p<0.001).

[11] = test system: Crohn's disease patient-derived organoids; assay: Double immunofluorescence for CC3 and TUNEL, Crohn's disease patient-derived organoids; conditions: 30 ng/mL TNFα; vs normal person-derived organoids
Method: (§10) Cell death by TNFα occurs through apoptosis or necroptosis. CC3 (cleaved caspase-3) is a marker capable of detecting cells in which apoptosis has occurred, and TUNEL staining can detect DNA fragmented due to apoptosis, and thus detect cells in which apoptosis or necroptosis has occurred. Therefore, CC3+ and TUNEL+ cells are cells in which apoptosis has occurred, and CC3− and […] cells are cells in which necroptosis has occurred.
(§11) CC3 staining was performed using primary rabbit antibodies specific for CC3 and a goat anti-rabbit secondary antibody conjugated to Alexa 594 fluorochrome (red fluorescence). In TUNEL staining, In Situ Cell Death Detection Kit (Merck) was used for the same sections in CC3 staining, and then fluorescein-labeled dUTP (green fluorescence) was used. DAPI was used to stain intracellular DNA. Statistical analysis was performed by ANOVA using Bonferroni's multiple comparison test (*** p<0.001).

[12] = test system: normal person-derived organoids; assay: EdU assay (cell proliferation), normal person-derived organoids; conditions: 30 ng/mL TNFα vs TNFα-untreated
Method: as §9

[13] = test system: normal person-derived intestinal organoids; assay: MTT assay (cell viability), normal person-derived organoids
Method: as §1, §2

[14] = test system: normal person-derived organoids; assay: Double immunofluorescence for CC3 and TUNEL, normal person-derived organoids; conditions: 30 ng/mL TNFα vs TNFα-untreated
Method: as §10, §11

[15] = 30 or 100 ng/mL TNFα + high concentration (infliximab 10 μg/mL, PGE2 10 nM)
[16] = TNFα 30 and 100 ng/mL + high concentration (infliximab 10 μg/mL or PGE2 10 nM)
[17] = 30 ng/mL TNFα + high concentration (infliximab 10 μg/mL or PGE2 10 nM), after 16 hours
[18] = 30 ng/mL TNFα vs TNFα-untreated
[19] = 30 or 100 ng/mL human recombinant TNFα
[20] = 0, 30 and 100 ng/mL TNFα, dependence on concentration

## infliximab
[1]; [15]
  cell viability (MTT): levels similar to those of TNFα-untreated normal person-derived organoids
LGR5 [2]
  LGR5 expression (qPCR): no difference in LGR5 expression depending on the concentration of TNFα
[3]; [15]
  organoid reconstitution rate: levels similar to those of TNFα-untreated normal person-derived organoids
[3]; TNFα + low concentration infliximab (1 μg/mL) alone
  organoid reconstitution rate: did not completely restore
[4]; [16]
  organoid reconstitution rate: the restoration of the organoid reconstitution rates was improved
[5]; [17]
  unhealed wound area: reduced, compared to when the organoids were treated with TNFα alone
LGR5 [6]
  LGR5 expression (FACS, LGR5+ ISCs population): no difference in LGR5 expression from when the organoids were treated with TNFα

## TNFα
LGR5 [7]
  number of LGR5+ cells per organoid: decreased in the Crohn's disease patient-derived organoids compared to the normal person-derived organoids
LGR5 [8]
  number of LGR5+ cells per organoid: increased
[9]
  unhealed wound area: the wound area was recovered after 16 hours
[1]; [18]
  cell viability (MTT): decreased in both the jejunum and the ileum
[1]; [19]
  apoptosis: increased in a concentration-dependent manner
[10]
  number of EdU+ cells: decreased compared to that of the normal person-derived organoids
[3]; 30 ng/mL TNFα, differentiation medium 10 days, jejunum and ileum
  organoid reconstitution rate: decreased compared to those of the normal person-derived organoids
[3]; [19]
  organoid reconstitution rate: decreased in a concentration-dependent manner
[4]; [20]
  organoid reconstitution rate: decreased
[4]; 30 ng/mL TNFα vs not treated, differentiation medium 10 days, jejunum and ileum
  organoid reconstitution rate: decreased
[5]; TNFα alone, 0-24 hours
  unhealed wound area: no significant decrease in the unhealed wound area even over time
[11]
  number of CC3−, TUNEL+ and CC3+, TUNEL+ cells (cell death): necroptosis more actively occurred than that in the normal person-derived organoids
[12]
  number of EdU+ cells: TNFα-untreated organoids increased compared to that in TNFα-treated organoids
[13]; [20]
  cell viability (MTT): also decreased
[13]; [18]
  cell viability (MTT): decreased in both the jejunum and the ileum
[14]
  number of CC3−, TUNEL+ and CC3+, TUNEL+ cells (cell death): increased

## CCCCC[C@H](O)/C=C/[C@H]1[C@H](O)CC(=O)[C@@H]1C/C=C\CCCC(=O)O [PGE2, prostaglandin E2]
[1]; [15]
  cell viability (MTT): levels similar to those of TNFα-untreated normal person-derived organoids
LGR5 [2]
  LGR5 expression (qPCR): increased
[3]; [15]
  organoid reconstitution rate: levels similar to those of TNFα-untreated normal person-derived organoids
[4]; 100 ng/mL TNFα + 10 nM PGE2
  organoid reconstitution rate: significantly improved compared to when the organoids were not treated with PGE2
[4]; [16]
  organoid reconstitution rate: the restoration of the organoid reconstitution rates was improved
[5]; [17]
  unhealed wound area: reduced, compared to when the organoids were treated with TNFα alone
[13]; 100 ng/mL TNFα + 10 nM PGE2
  cell viability (MTT): significantly improved compared to when the organoids were not treated with PGE2
LGR5 [6]
  LGR5 expression (FACS, LGR5+ ISCs population): increased
